# According to US20250152936A1, “METHOD FOR THE TREATMENT OF VASCULAR ANOMALIES BY ADMINISTERING ONE OR MORE SCLEROSING AGENTS AND APPLYING A SERIES OF ELECTRIC PULSES” (IGEA S.P.A., priority 2023, published 2025):
# Legend:
# venous malformation = experiment: Electrosclerotherapy case, Example 2 (patient, photographs, 3 years follow-up)
# [1] = system: symptomatic venous malformation of the left thigh; experiment: Electrosclerotherapy case, Example 1 (patient, MRI follow-up); assay type: in vivo, human; conditions: 1.5 mg bleomycin
# Method: FIGS. 1A and 1C show magnetic resonance of a symptomatic venous malformation of the left thigh in a patient previously treated with surgery and sclerotherapy;
# FIGS. 1B and 1D show magnetic resonance of the symptomatic venous malformation of FIG. 1A three months after one electrosclerotherapy session.
# A patient with a symptomatic venous malformation of the left thigh, causing swelling, pain, and partial immobility, recurring after surgery and sclerotherapy with Aethoxysklerol was treated with electrosclerotherapy using custom geometry electrodes and 1.5 mg bleomycin. […] Volume of the lesion before treatment: 26.79 cm^3; volume of the lesion after treatment: 0.00 cm^3.
# [2] = system: venous malformations that did not respond to previous invasive therapies; conditions: 17 patients, cited from earlier work
Compound,"outcome of sclerotherapy (venous malformation; 7 sessions of ethanol sclerotherapy, without electric pulses)","magnetic resonance imaging outcome of the malformation ([1]; custom geometry electrodes, 3 months after one session of electrosclerotherapy)",adverse events ([1]; one electrosclerotherapy session),"volume of the lesion after treatment ([1]; one electrosclerotherapy session, volume before treatment 26.79 cm^3) [cm^3]",clinical improvement ([2]; after an average of 3.7 months and 1.12 sessions per patient),"decrease in lesion volume on magnetic resonance imaging (average) ([2]; bleomycin in combination with reversible electroporation, average 3.7 months and 1.12 sessions per patient) [%]","functionality of nerves (venous malformation; 2 sessions of electrosclerotherapy, finger electrode, 2 mg of Bleomycin per session, 3 years follow-up)"
CCO [ethanol],unsuccessfully treated,–,–,–,–,–,–
bleomycin,–,complete resolution of the malformation,No documented adverse events,0.00,clinical improvement in all patients,86,Functionality of nerves is preserved
